Source: US20260217701A1, “SELECTIVE BET INHIBITORS AND USES THEREOF” (Tay Therapeutics Limited, priority 2022, published 2026)
Where “and” joins values, the source holds several entries; their conditions need not be identical. Equal values may be shown once.

Tested on: collagen-induced arthritis
Assay: Collagen-induced arthritis (CIA) model: clinical scores and paw volume; on Animal paw volume percent change (%): reference of the scale not given here; on Average animal paw volume percent change (%): reference of the scale not given here
Format: in vivo, Lewis rats
Conditions: for Overall Clinical Score: individual animals 1-8; for Animal paw volume / Animal paw volume percent change (%): individual animals
[1] = Day 15, CIA + Compound A 3 mg/kg
[2] = Day 15, CIA + Compound A 10 mg/kg
[3] = Day 18, L paw, group 5 CIA + Compound A 1 mg/kg
[4] = Day 18, L paw, group 6 CIA + Compound A 3 mg/kg
[5] = Day 18, L paw, group 7 CIA + Compound A 10 mg/kg
[6] = Day 18, R paw, group 5 CIA + Compound A 1 mg/kg
[7] = Day 18, R paw, group 6 CIA + Compound A 3 mg/kg
[8] = Day 18, R paw, group 7 CIA + Compound A 10 mg/kg
[9] = Day 18, CIA + Compound A 1 mg/kg
[10] = Day 18, CIA + Compound A 3 mg/kg
[11] = Day 18, CIA + Compound A 10 mg/kg
[12] = Day 19, L paw, group 5 CIA + Compound A 1 mg/kg
[13] = Day 19, L paw, group 6 CIA + Compound A 3 mg/kg
[14] = Day 19, L paw, group 7 CIA + Compound A 10 mg/kg
[15] = Day 19, R paw, group 5 CIA + Compound A 1 mg/kg
[16] = Day 19, R paw, group 6 CIA + Compound A 3 mg/kg
[17] = Day 19, R paw, group 7 CIA + Compound A 10 mg/kg
[18] = Day 19, CIA + Compound A 1 mg/kg
[19] = Day 19, CIA + Compound A 3 mg/kg
[20] = Day 21, L paw, group 5 CIA + Compound A 1 mg/kg
[21] = Day 21, L paw, group 6 CIA + Compound A 3 mg/kg
[22] = Day 21, L paw, group 7 CIA + Compound A 10 mg/kg
[23] = Day 21, R paw, group 5 CIA + Compound A 1 mg/kg

SMILES: Cn1cc(-c2ccccc2)c(-c2cn(C)c(=O)c3[nH]c(-c4cnn(C(F)(F)F)c4)cc23)cc1=O [Compound A, 6-methyl-4-(1-methyl-2-oxo-5-phenyl-1,2-dihydropyridin-4-yl)-2-(1-(trifluoromethyl)-1H-pyrazol-4-yl)-1,6-dihydro-7H-pyrrolo[2,3-c]pyridin-7-one]
- Average detailed clinical score, score [1]: 1
- Average overall clinical score [1]: 1
- Overall Clinical Score (Day 15, CIA + Compound A 3 mg/kg, 3 mg/kg): 0 (2×) and 1
- Average detailed clinical score, left forelimb [2]: 0
- Average detailed clinical score, left hind limb [2]: 0.75
- Average detailed clinical score, right forelimb [2]: 0
- Average detailed clinical score, right hind limb [2]: 0.5
- Average detailed clinical score, score [2]: 1.25
- Average overall clinical score [2]: 1
- Animal paw volume (Day 15, L paw, Group 5 (CIA + Compound A 1 mg/kg), 1 mg/kg): 1.45 mL and 1.84 mL and 1.77 mL and 1.64 mL and 1.48 mL and 1.66 mL and 1.92 mL
- Animal paw volume (Day 15, L paw, Group 6 (CIA + Compound A 3 mg/kg), 3 mg/kg): 1.49 mL (2×) and 1.59 mL and 1.48 mL and 1.54 mL and 1.68 mL
- Animal paw volume (Day 15, R paw, Group 5 (CIA + Compound A 1 mg/kg), 1 mg/kg): 1.42 mL and 1.81 mL and 1.56 mL and 1.65 mL and 1.50 mL and 1.72 mL and 1.59 mL
- Animal paw volume (Day 15, R paw, Group 6 (CIA + Compound A 3 mg/kg), 3 mg/kg): 1.39 mL and 1.41 mL and 1.46 mL and 1.42 mL and 1.75 mL and 1.57 mL
- Average animal paw volume [3]: 1.98 mL
- Average animal paw volume percent change (%) [3]: 49.46%
- Average animal paw volume [4]: 1.64 mL
- Average animal paw volume percent change (%) [4]: 24.36%
- Average animal paw volume [5]: 1.61 mL
- Average animal paw volume percent change (%) [5]: 22.68%
- Animal paw volume percent change (%) (Day 18, L paw, group 5 CIA + Compound A 1 mg/kg, 1 mg/kg): 55.17% and 87.60% and 51.66% and 66.42% and 24.72% and 52.08% and 52.83%
- Animal paw volume percent change (%) (Day 18, L paw, group 6 CIA + Compound A 3 mg/kg, 3 mg/kg): 29.66% and 54.47% and 6.08% and 10.26% and 18.39% and 23.97%
- Average animal paw volume [6]: 1.91 mL
- Average animal paw volume percent change (%) [6]: 44.06%
- Average animal paw volume [7]: 1.78 mL
- Average animal paw volume percent change (%) [7]: 35.37%
- Average animal paw volume [8]: 1.76 mL
- Average animal paw volume percent change (%) [8]: 34.04%
- Animal paw volume percent change (%) (Day 18, R paw, group 5 CIA + Compound A 1 mg/kg, 1 mg/kg): 59.00% and 89.96% and 33.45% and 53.58% and 18.45% and 55.13% and 36.98%
- Animal paw volume percent change (%) (Day 18, R paw, group 6 CIA + Compound A 3 mg/kg, 3 mg/kg): 61.13% and 22.57% and 44.15% and 30.48% and 50.58% and 23.22%
- Average detailed clinical score, left forelimb [9]: 0.50
- Average detailed clinical score, left hind limb [9]: 3.88
- Average detailed clinical score, right forelimb [9]: 0.50
- Average detailed clinical score, right hind limb [9]: 3.88
- Average detailed clinical score, score [9]: 8.75
- Average overall clinical score [9]: 4
- Overall Clinical Score (Day 18, CIA + Compound A 1 mg/kg, 1 mg/kg): 0 and 5 (3×) and 7 and 6 and 2 and 4
- Average detailed clinical score, left forelimb [10]: 0.00
- Average detailed clinical score, left hind limb [10]: 2.50
- Average detailed clinical score, right forelimb [10]: 0.88
- Average detailed clinical score, right hind limb [10]: 2.25
- Average detailed clinical score, score [10]: 5.63
- Average overall clinical score [10]: 3
- Overall Clinical Score (Day 18, CIA + Compound A 3 mg/kg, 3 mg/kg): 4 and 3 and 2
- Average detailed clinical score, left forelimb [11]: 0.00
- Average detailed clinical score, left hind limb [11]: 1.13
- Average detailed clinical score, right forelimb [11]: 0.00
- Average overall clinical score [11]: 3
- Animal paw volume (Day 18, L paw, Group 5 (CIA + Compound A 1 mg/kg), 1 mg/kg): 2.03 mL (2×) and 2.42 mL and 2.06 mL and 2.21 mL and 1.67 mL and 2.02 mL
- Animal paw volume (Day 18, L paw, Group 6 (CIA + Compound A 3 mg/kg), 3 mg/kg): 1.71 mL and 1.99 mL and 1.40 mL and 1.51 mL and 1.55 mL and 1.66 mL
- Animal paw volume (Day 18, R paw, Group 5 (CIA + Compound A 1 mg/kg), 1 mg/kg): 2.08 mL and 2.46 mL and 1.84 mL and 2.04 mL (2×) and 1.61 mL and 1.82 mL
- Animal paw volume (Day 18, R paw, Group 6 (CIA + Compound A 3 mg/kg), 3 mg/kg): 2.14 mL and 1.58 mL and 1.91 mL and 1.76 mL and 1.95 mL and 1.65 mL
- Average animal paw volume [12]: 1.97 mL
- Average animal paw volume percent change (%) [12]: 49.19%
- Average animal paw volume [13]: 1.70 mL
- Average animal paw volume percent change (%) [13]: 29.54%
- Average animal paw volume [14]: 1.66 mL
- Average animal paw volume percent change (%) [14]: 26.62%
- Animal paw volume percent change (%) (Day 19, L paw, group 5 CIA + Compound A 1 mg/kg, 1 mg/kg): 55.17% and 87.60% and 49.82% and 69.06% and 22.47% and 52.08% and 53.58%
- Animal paw volume percent change (%) (Day 19, L paw, group 6 CIA + Compound A 3 mg/kg, 3 mg/kg): 43.35% and 54.47% and 22.81% and 10.99% and 29.12%
- Average animal paw volume [15]: 1.92 mL
- Average animal paw volume percent change (%) [15]: 44.50%
- Average animal paw volume [16]: 1.78 mL
- Average animal paw volume percent change (%) [16]: 35.81%
- Average animal paw volume [17]: 1.75 mL
- Average animal paw volume percent change (%) [17]: 33.14%
- Animal paw volume percent change (%) (Day 19, R paw, group 5 CIA + Compound A 1 mg/kg, 1 mg/kg): 68.20% and 87.26% and 33.45% and 54.34% and 17.71% and 54.75% and 35.85%
- Animal paw volume percent change (%) (Day 19, R paw, group 6 CIA + Compound A 3 mg/kg, 3 mg/kg): 61.89% and 25.68% and 43.02% and 29.74% and 52.90%
- Average detailed clinical score, left forelimb [18]: 1.13
- Average detailed clinical score, left hind limb [18]: 4.00
- Average detailed clinical score, right forelimb [18]: 1.00
- Average detailed clinical score, right hind limb [18]: 3.75
- Average detailed clinical score, score [18]: 9.88
- Average overall clinical score [18]: 5
- Overall Clinical Score (Day 19, CIA + Compound A 1 mg/kg, 1 mg/kg): 0 and 6 (5×) and 8 and 3
- Average detailed clinical score, left forelimb [19]: 0.00
- Average detailed clinical score, left hind limb [19]: 2.38
- Average detailed clinical score, right forelimb [19]: 1.13
- Average detailed clinical score, right hind limb [19]: 2.88
- Average detailed clinical score, score [19]: 6.38
- Average overall clinical score [19]: 4
- Overall Clinical Score (Day 19, CIA + Compound A 3 mg/kg, 3 mg/kg): 5 and 4 (2×)
- Average overall clinical score (Day 19, CIA + Compound A 10 mg/kg): 4
- Animal paw volume (Day 19, L paw, Group 5 (CIA + Compound A 1 mg/kg), 1 mg/kg): 2.03 mL (2×) and 2.42 mL and 2.24 mL and 1.64 mL and 2.02 mL and 2.04 mL
- Animal paw volume (Day 19, L paw, Group 6 (CIA + Compound A 3 mg/kg), 3 mg/kg): 1.89 mL and 1.99 mL and 1.62 mL and 1.52 mL and 1.69 mL
- Animal paw volume (Day 19, R paw, Group 5 (CIA + Compound A 1 mg/kg), 1 mg/kg): 2.20 mL and 2.43 mL and 1.84 mL and 2.05 mL and 1.60 mL and 2.04 mL and 1.80 mL
- Animal paw volume (Day 19, R paw, Group 6 (CIA + Compound A 3 mg/kg), 3 mg/kg): 2.15 mL and 1.62 mL and 1.90 mL and 1.75 mL and 1.98 mL
- Average animal paw volume [20]: 2.01 mL
- Average animal paw volume percent change (%) [20]: 52.06%
- Average animal paw volume [21]: 1.73 mL
- Average animal paw volume percent change (%) [21]: 31.54%
- Average animal paw volume [22]: 1.72 mL
- Average animal paw volume percent change (%) [22]: 31.20%
- Animal paw volume percent change (%) (Day 21, L paw, group 5 CIA + Compound A 1 mg/kg, 1 mg/kg): 56.70% and 89.53% and 53.14% and 70.94% and 22.47% and 56.60% and 61.89%
- Animal paw volume percent change (%) (Day 21, L paw, group 6 CIA + Compound A 3 mg/kg, 3 mg/kg): 46.01% and 70.04% and 24.33% and 10.99% and 37.55%
- Average animal paw volume [23]: 2.01 mL
- Average animal paw volume percent change (%) [23]: 51.46%
- Average animal paw volume (Day 21, R paw, group 6 CIA + Compound A 3 mg/kg): 1.82 mL
